System: ovarian cancer cell lines (OV-CAR)
Experiment: Western blot of DSG2 in OV-CAR cell supernatants after cisplatin treatment
Assay type: cell-based
Description: FIGS. 5A, 5B and 5C (collectively FIGS. 5A-5C) show the effect of DSG2 expression in response to cisplatin.
Western Blot. Mini-PROTEAN precast gels (BIO-RAD, Hercules, CA) with 4-15% gradient polyacrylamide are used. A total of 1 μg protein mixed with 2× loading buffer (10 mM Tris-HCl, pH 6.8, 200 mM DTT, 4% SDS, 20% glycerol, 0.2% bromophenol blue) is loaded per lane. Samples are either boiled (B) for 5 min or loaded unboiled (UB). The following running buffer is used: 25 mM Tris, pH 8.3, 0.192 M glycine, 0.1% SDS. After electrophoresis, proteins are transferred to nitrocellulose and incubated with the corresponding antibodies. For detection of DSG2 binding, filters are incubated with recombinant human DSG2 protein and anti-DSG2 antibody 6D8 as described (Wang et al. Nat Med. 2011; 17(1):96-104). Other Western blots use a primary mouse monoclonal antibody followed by an anti-mouse IgG HRP conjugate. Selected Western blots are scanned and quantified using the ImageJ 1.32 software (National Institutes of Health, Bethesda, MD).
In this Example, a potential mode of chemoresistance was investigated, DSG2 protein levels were determined in cancer cells after treatment with cisplatin, a commonly used platinum-based therapeutic used as first-line treatment of ovarian cancer and its metastases.
Cell supernatants from ovarian cancer cell lines (OV-CAR) were first interrogated with monoclonal and polyclonal anti-DSG2 antibodies to confirm specificity of the antibodies. […] Within 2 days of cisplatin treatment, the presence of cleaved DSG2, a product of DSG2 shedding, was detected in cell supernatant (FIGS. 5A and 5B). Quantitative analysis of the blot intensity indicated DSG2 peaking at 2 days after cisplatin treatment.

N.N.[Cl][Pt][Cl] [cisplatin]
time of DSG2 peak by quantitative analysis of blot intensity (OV-CAR cells, after cisplatin treatment, ImageJ, day 0 as control): 2 days | time until cleaved DSG2 (product of DSG2 shedding) was detected in cell supernatant (OV-CAR cells, after cisplatin treatment, Western blot): ≤ 2 days | DSG2 response of ovarian cancer cells to treatment (cisplatin treatment): upregulated and shed in increased amounts

Source: patent US12669505B2, “Detection of desmoglein-2 in cancers of epithelial origin” (HDT Bio Corp., priority 2019, dated 2026)
